This is an account of results in patent publication US20230250060A1 (IFM Due, Inc., priority 2022, published 2023).

pEC50: −log10 of the molar value.

T1 sequence (Q86WV6 whole entry R71H/G230A/H232R/R293Q): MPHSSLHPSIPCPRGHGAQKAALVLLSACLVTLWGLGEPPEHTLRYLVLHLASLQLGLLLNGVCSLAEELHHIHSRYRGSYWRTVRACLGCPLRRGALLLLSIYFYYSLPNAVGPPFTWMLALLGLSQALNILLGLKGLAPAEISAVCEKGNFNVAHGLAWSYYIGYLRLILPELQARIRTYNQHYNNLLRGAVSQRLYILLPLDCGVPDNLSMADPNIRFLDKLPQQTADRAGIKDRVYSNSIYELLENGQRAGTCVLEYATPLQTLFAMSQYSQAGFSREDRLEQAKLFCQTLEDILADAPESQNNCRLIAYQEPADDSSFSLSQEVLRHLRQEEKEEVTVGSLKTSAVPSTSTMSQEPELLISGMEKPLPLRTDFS

The experiment has as its target T1, STING (Homo sapiens, UniProt Q86WV6, G230A/H232R/R293Q/R71H).
T1 construct: host or cells: THP1-Dual KO-IFNAR2 cells
Briefly: STING reporter assay (luciferase) in THP1-Dual KO-IFNAR2 cells stimulated with 2′3′cGAMP. The experiment is classed as cell-based. As to conditions: 2′3′cGAMP 15 μM final, 24 h, luciferase reporter activity, read-out: Pharmaron, THP1_IFNAR2 STING 24 h Luci Normalized: GeoMean EC50. The method, boiled down: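 THP1-Dual KO-IFNAR2 cells (2×10E6 cells/mL) exposed to compounds at 0.0017-100 μM final and stimulated with 2′3′cGAMP (15 μM final) delivered via Lipofectamine 2000. After 24 h at 37° C., secreted luciferase in supernatant read with QUANTI-Luc Plus; EC50 derived from luminescence.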
As to `O=C(Nc1c[nH]c2ccc(OCC[C@@H]3C[C@@H]4CN(CC(F)(F)F)C[C@@H]4C3)cc12)c1cncs1` [Compound 190, N-(5-(2-((3aR,5r,6aS)-2-(2,2,2-trifluoroethyl)octahydrocyclopenta[c]pyrrol-5-yl)ethoxy)-1H-indol-3-yl)thiazole-5-carboxamide], the pEC50 (in general, the EC50 on a negative log10 scale, so that one unit is a factor of ten) was 6.00 to 6.70.
As for `O=C(Nc1c[nH]c2ccc(OCCc3ccc(C(F)(F)F)cc3)cc12)C1CC2(CCC2)C1` [Compound 191, N-(5-(4-(trifluoromethyl)phenethoxy)-1H-indol-3-y)spiro[3.3]heptane-2-carboxamide], the pEC50 is 6.70 to 7.40.
For `O=C(Nc1c[nH]c2ccc(O[C@H]3C[C@@H](c4ccc(C(F)(F)F)cc4)C3)cc12)c1cscn1` [Compound 192, N-(5-((1s,3s)-3-(4-(trifluoromethyl)phenyl)cyclobutoxy)-1H-indol-3-yl)thiazole-4-carboxamide], the negative-log EC50 (pEC50) is 6.00 to 6.70.
On to `O=C(Nc1c[nH]c2ccc(OCC[C@@H]3C[C@@H]4CN(CC(F)(F)F)C[C@@H]4C3)cc12)c1cscn1` [Compound 193, N-(5-(2-((3aR,5r,6aS)-2-(2,2,2-trifluoroethyl)octahydrocyclopenta[c]pyrrol-5-yl)ethoxy)-1H-indol-3-yl)thiazole-4-carboxamide], for which the negative-log EC50 (pEC50) was 6.00 to 6.70.
Take `O=C(Nc1c[nH]c2ccc(CCOc3ccc(C(F)(F)F)cc3)cc12)c1ccncc1` [Compound 194, N-(5-(2-(4-(trifluoromethyl)phenoxy)ethyl)-1H-indol-3-yl)isonicotinamide]: the pEC50 was 6.00 to 6.70.
In the case of `O=C(Nc1c[nH]c2ccc(CCOc3ccc(C(F)(F)F)cc3)cc12)c1cccnc1` [Compound 195, N-(5-(2-(4-(trifluoromethyl)phenoxy)ethyl)-1H-indol-3-yl)nicotinamide], the pEC50 is 6.00 to 6.70.
As to `O=C(Nc1c[nH]c2ccc(CCOc3ccc(C(F)(F)F)cc3)cc12)c1ccccn1` [Compound 196, N-(5-(2-(4-(trifluoromethyl)phenoxy)ethyl)-1H-indol-3-yl)picolinamide], the negative logarithm of the EC50 (pEC50) is 5.30 to 6.00.
Take `O=C(CC1CC1)Nc1c[nH]c2ccc(CCOc3ccc(C(F)(F)F)cc3)cc12` [Compound 197, 2-cyclopropyl-N-(5-(2-(4-(trifluoromethyl)phenoxy)ethyl)-1H-indol-3-yl)acetamide]: the pEC50 was 6.00 to 6.70.
`O=C(Nc1c[nH]c2ccc(CCOc3ccc(C(F)(F)F)cc3)cc12)C1CC2(CC2)C1` [Compound 198, N-(5-(2-(4-(trifluoromethyl)phenoxy)ethyl)-1H-indol-3-yl)spiro[2.3]hexane-5-carboxamide]: the pEC50 was 6.00 to 6.70.
As for `CC12CC(C(=O)Nc3c[nH]c4ccc(CCOc5ccc(C(F)(F)F)cc5)cc34)(C1)C2` [Compound 199, 3-methyl-N-(5-(2-(4-(trifluoromethyl)phenoxy)ethyl)-1H-indol-3-yl)bicyclo[1.1.1]pentane-1-carboxamide], the pEC50 was 6.00 to 6.70.
On to `O=C(Nc1c[nH]c2ccc(CCOc3ccc(C(F)(F)F)cc3)cc12)C1CC12CC2` (stereo not shown) [Compound 200, N-(5-(2-(4-(trifluoromethyl)phenoxy)ethyl)-1H-indol-3-yl)spiro[2.2]pentane-1-carboxamide], for which the pEC50 was 6.00 to 6.70.
Under `O=C(Nc1c[nH]c2ccc(CCOc3ccc(C(F)(F)F)cc3)cc12)c1nccs1` [Compound 201, N-(5-(2-(4-(trifluoromethyl)phenoxy)ethyl)-1H-indol-3-yl)thiazole-2-carboxamide] stands 6.00 to 6.70; under `O=C(Nc1c[nH]c2ccc(CCOc3ccc(C(F)(F)F)cc3)cc12)c1cscn1` [Compound 202, N-(5-(2-(4-(trifluoromethyl)phenoxy)ethyl)-1H-indol-3-yl)thiazole-4-carboxamide], 6.00 to 6.70.
For `Cn1nccc1C(=O)Nc1c[nH]c2ccc(OCCc3ccc(C(F)(F)F)cc3)cc12` [Compound 203, 1-methyl-N-(5-(4-(trifluoromethyl)phenethoxy)-1H-indol-3-yl)-1H-pyrazole-5-carboxamide], the pEC50 was 6.00 to 6.70.
Take `O=C(Nc1c[nH]c2ccc(O[C@H]3C[C@@H](c4ccc(C(F)(F)F)cc4)C3)cc12)C12CC(O)(C1)C2` [Compound 204, 3-hydroxy-N-(5-(cis-3-(4-(trifluoromethyl)phenyl)cyclobutoxy)-1H-indol-3 yl)bicyclo[1.1.1]pentane-1-carboxamide]: the pEC50 is 5.30 to 6.00.
Regarding `CC1(C(=O)Nc2c[nH]c3ccc(OCC[C@@H]4C[C@@H]5CN(CC(F)(F)F)C[C@@H]5C4)cc23)CC2(COC2)C1` [Compound 205, 6-methyl-N-(5-(2-((3aR,5r,6aS)-2-(2,2,2-trifluoroethyl)octahydrocyclopenta[c]pyrrol-5-yl)ethoxy)-1H-indol-3-yl)-2-oxaspiro[3.3]heptane-6-carboxamide], the negative logarithm of the EC50 (pEC50) is 6.00 to 6.70.
Regarding `O=C(Nc1c[nH]c2ccc(OCC[C@@H]3C[C@@H]4CN(CC(F)(F)F)C[C@@H]4C3)cc12)C1CC2(COC2)C1` [Compound 206, N-(5-(2-((3aR,5r,6aS)-2-(2,2,2-trifluoroethyl)octahydrocyclopenta[c]pyrrol-5-yl)ethoxy)-1H-indol-3-yl)-2-oxaspiro[3.3]heptane-6-carboxamide], the pEC50 is 6.00 to 6.70.
For the compound `O=C(Nc1c[nH]c2ccc(O[C@H]3C[C@H](c4ccc(C(F)(F)F)cc4)C3)cc12)C1C2COCC21` (stereo partly drawn) [Compound 207, N-(5-(trans-3-(4-(trifluoromethyl)phenyl)cyclobutoxy)-1H-indol-3-yl)-3-oxabicyclo[3.1.0]hexane-6-carboxamide], the pEC50 was 6.00 to 6.70.
With `O=C(Nc1c[nH]c2ccc(OCC[C@@H]3C[C@@H]4CN(CC(F)(F)F)C[C@@H]4C3)cc12)C1CC2C(C1)C2(F)F` (stereo partly drawn) [Compound 208, 6,6-difluoro-N-(5-(2-((3aR,5r,6aS)-2-(2,2,2-trifluoroethyl)octahydrocyclopenta[c]pyrrol-5-yl)ethoxy)-1H-indol-3-yl)bicyclo[3.1.0]hexane-3-carboxamide], the pEC50 was 6.00 to 6.70.
In the case of `O=C(Nc1c[nH]c2ccc(OCC[C@@H]3C[C@@H]4CN(CC(F)(F)F)C[C@@H]4C3)cc12)C1C2COCC21` (stereo partly drawn) [Compound 210, N-(5-(2-((3aR,5r,6aS)-2-(2,2,2-trifluoroethyl)octahydrocyclopenta[c]pyrrol-5-yl)ethoxy)-1H-indol-3-yl)-3-oxabicyclo[3.1.0]hexane-6-carboxamide], the pEC50 was 6.00 to 6.70.
Under `O=C(Nc1c[nH]c2ccc(O[C@H]3C[C@H](c4ccc(C(F)(F)F)cc4)C3)cc12)C1CC2(COC2)C1` [Compound 211, N-{5-[(1R,3R)-3-[4-(trifluoromethyl)phenyl]cyclobutoxy]-1H-indol-3-yl}-2-oxaspiro[3.3]heptane-6-carboxamide] stands 6.70 to 7.40; under `O=C(Nc1c[nH]c2ccc(O[C@H]3C[C@H](c4ccc(C(F)(F)F)cc4)C3)cc12)C12CC(C1)C2` [Compound 212, N-{5-[(1R,3R)-3-[4-(trifluoromethyl)phenyl]cyclobutoxy]-1H-indol-3-yl}bicyclo[1.1.1]pentane-1-carboxamide], 6.70 to 7.40; under `O=C(Nc1c[nH]c2ccc(O[C@H]3C[C@H](c4ccc(C(F)(F)F)nc4)C3)cc12)c1ccc(C(F)(F)F)cc1` [Compound 213, 4-(trifluoromethyl)-N-(5-(trans-3-(6-(trifluoromethyl)pyridin-3-yl)cyclobutoxy)-1H-indol-3-yl)benzamide], 6.00 to 6.70.
With `O=C(Nc1c[nH]c2ccc(O[C@H]3C[C@@H](c4ccc(C(F)(F)F)nc4)C3)cc12)c1ccc(C(F)(F)F)cc1` [Compound 214, 4-(trifluoromethyl)-N-(5-(cis-3-(6-(trifluoromethyl)pyridin-3-yl)cyclobutoxy)-1H-indol-3-yl)benzamide], the pEC50 is 6.70 to 7.40.
Under `O=C(Nc1c[nH]c2ccc(O[C@H]3C[C@H](c4ccc(C(F)(F)F)nc4)C3)cc12)c1ccccc1` [Compound 215, N-(5-(trans-3-(6-(trifluoromethyl)pyridin-3-yl)cyclobutoxy)-1H-indol-3-yl)benzamide] stands 6.00 to 6.70; under `O=C(Nc1c[nH]c2ccc(O[C@H]3C[C@@H](c4ccc(C(F)(F)F)nc4)C3)cc12)c1ccccc1` [Compound 216, N-(5-(cis-3-(6-(trifluoromethyl)pyridin-3-yl)cyclobutoxy)-1H-indol-3-yl)benzamide], 6.70 to 7.40.
Consider `Cn1cc(C(=O)Nc2c[nH]c3ccc(O[C@H]4C[C@@H](c5ccc(C(F)(F)F)nc5)C4)cc23)nn1` [Compound 217, 1-methyl-N-(5-(cis-3-(6-(trifluoromethyl)pyridin-3-yl)cyclobutoxy)-1H-indol-3-yl)-1H-1,2,3-triazole-4-carboxamide], for which the pEC50 is 6.00 to 6.70.
Under `O=C(Nc1c[nH]c2ccc(OCc3ccc(C(F)(F)F)cc3)cc12)c1ccccc1` [Compound 218, N-(5-((4-(trifluoromethyl)benzyl)oxy)-1H-indol-3-yl)benzamide] stands 6.00 to 6.70; under `Cn1cc(C(=O)Nc2c[nH]c3ccc(O[C@H]4C[C@H](c5ccc(C(F)(F)F)nc5)C4)cc23)nn1` [Compound 219, 1-methyl-N-(5-(trans-3-(6-(trifluoromethyl)pyridin-3-yl)cyclobutoxy)-1H-indol-3-yl)-1H-1,2,3-triazole-4-carboxamide], 6.00 to 6.70.
Regarding `Cn1ccnc1C(=O)Nc1c[nH]c2ccc(O[C@H]3C[C@H](c4ccc(C(F)(F)F)cc4)C3)cc12` [Compound 220, 1-methyl-N-{5-[(1R,3R)-3-[4-(trifluoromethyl)phenyl]cyclobutoxy]-1H-indol-3-yl}-1H-imidazole-2-carboxamide], the negative logarithm of the EC50 (pEC50) was 6.00 to 6.70.
For the compound `O=C(Nc1c[nH]c2ccc(OCc3ccc(C(F)(F)F)cc3)cc12)C1CC2(CC2)C1` [Compound 221, N-(5-{[4-(trifluoromethyl)phenyl]methoxy}-1H-indol-3-yl)spiro[2.3]hexane-5-carboxamide], the negative logarithm of the EC50 (pEC50) was 6.00 to 6.70.
